Laboratory results from patent publication US10888556B2, “Method for treating myopia with an nsaid and an anti-muscarinic agent” (KAOHSIUNG CHANG GUNG MEMORIAL HOSPITAL, priority 2013, dated 2021).

B1: TGF-β2: Transforming growth factor beta 2 (SEQ ID NO:5), ocular chondrogenic protein used to induce α-SMA and Col2 in SSPC (protein, listed as Homo sapiens)
chain: MHYCVLSAFLILHLVTVALSLSTCSTLDMDQFMRKRIEAIRGQILSKLKLTSPPEDYPEPEEVPPEVISIYNSTRDLLQEKASRRAAACERERSDEEYYAKEVYKIDMPPFFPSEAIPPTFYRPYFRIVRFDVSAMEKNASNLVKAEFRVFRLQNPKARVPEQRIELYQILKSKDLTSPTQRYIDSKVVKTRAEGEWLSFDVTDAVHEWLHHKDRNLGFKISLHCPCCTFVPSNNYIIPNKSEELEARFAGIDGTSTYTSGDQKTIKSTRKKNSGKTPHLLLMLLPSYRLESQQTNRRKKRALDAAYCFRNVQDNCCLRPLYIDFKRDLGWKWIHEPKGYNANFCAGACPYLWSSDTQHSRVLSLYNTINPEASASPCCVSQDLEPLTILYYIGKTPKIEQLSNMIVKSCKCS
modifications: Transforming growth factor beta-2 (TGF-beta-2)

Columns and labels:
[1] = system: human SSPC; experiment: Col2 and α-SMA expression in human SSPC treated with TGF-β2 (western blot); assay type: cell-based; settings: in the presence of TGF-β2 (10 ng/ml), 1 mM atropine, 5 mM ketorolac, 1 mM diclofenac
Method: Different concentrations of TGF-β2 were added into 12-wells of SSPCs. After 24 hrs, the images of SSPC morphology were recorded. The total RNA was extracted for further analysis. A chamber slide culture for the immunofluorescence study was performed under the same condition.
The total protein from the sclera was extract by using RIPA protein extraction buffer. After homogenization of scleral tissue, the sample was centrifuged and the supernatant was collected. The protein concentration of each sample was measured using a BCA™ protein Assay Kit (Bio-Rad). Scleral protein samples were standardized and electrophoresed on 10% SDS-PAGE gel, then transferred to a polyvinylidene fluoride transfer membrane (Immun-Blot PVDF Membrane, BIO-RAD) at 21 V for 1 h. Membranes were blocked for 1 h at room temperature with 5% dry milk in PBS with 0.1% Tween and incubated at 4° C. overnight with primary antibodies. Membranes were washed and incubated with 1:10,000 goat anti-mouse or anti-rabbit IgG antibodies conjugated to horseradish peroxidase (Santa Cruz) for 1 h at room temperature and washed again. Membranes were developed by chemiluminescence with the reagent Lumigen TMA-6 (GE Healthcare UK limited, Buckinghumshire, UK) and images were captured with the LAS-4000 imaging system (Fujifilm, Tokyo, Japan). Protein bands were quantified using ImageJ software.
An in vitro study examining the effect of an anti-muscarinic agent and NSAID on Col2 and α-SMA expressions was performed using human SSPC.

[2] = system: myopic patient; experiment: Treating a myopia subject with NSAID (ketorolac ophthalmic solution); assay type: in vivo, human; settings: one patient, both eyes, after three months of about 0.5% ketorolac, one drop at night
Method: The dose of ketorolac was about 0.5% weight ketorolac per unit dose (about 0.05 to 0.5 ml) and the affected eye was given one drop (about 0.05 to 0.5 ml) of ketorolac ophthalmic solution at night.

[3] = system: SSPCs; experiment: α-SMA and Col2 expression in SSPCs treated with TGF-β2, atropine/ketorolac combination; assay type: cell-based, mouse; settings: in the presence of TGF-β2 10 ng/ml, 0.5 mM atropine, 2.5 mM ketorolac, or combination
Method: In brief, sclera from the mouse was obtained and was carefully dissected away from limbus and optic disc under a dissection microscope. After retina and choroid tissues were removed, the scleral tissue was cut into small pieces and digested with 1.5 mg/ml collagenase type I (Worthington Biochemical, Lakewood, USA) and 2 mg/ml of dispase (Roche, Basel, Switzerland) in PBS for 1 h at 37° C. to release individual cells. Individual cells were cultured in α-MEM (Invitrogen, Carlsbad, USA), supplemented with 20% lot-selected FBS (Equitech-Bio, Kerrville, USA), glutamine, penicillin/streptomycin and 100 mM 2-mercaptoethanol (Invitrogen) for 8 to 10 days at 5% CO2, 37° C.

[4] = system: TNF-α; experiment: Expression of inflammation markers in choroids of FDM mice (real-time PCR); assay type: in vivo; settings: FDM eye of mice, one ketorolac eye drop once a day
Method: Total RNA from SSPCs or the choroid tissue in each eye was isolated using Trizol (Invitrogen, Carlsbad, Calif.) accordingly to the manufacture's protocol. qRT-PCR analysis was carried out using the iScript one-step RT-PCR kit with SYBR Green (Bio-Rad, Hercules, USA) on an ABI PRISM 7900 HT sequence detection system (Applied Biosystems, Foster City, USA), according to the manufacturer's instructions. […] Ct values of the control gene were subtracted from those of α-SMA and Col2 to provide a semiquantitative analysis, and fold change relative to no treatment was assessed.
On the day of the experiment (postnatal day [P] 21˜24), C57BL/6J mice were anesthetized by intraperitoneal injection of ketamine (90 mg/kg) and xylazine (10 mg/kg), and the diffuser eye patches were sutured to the skin around the right eye whereas the left eye served as a control. […] The mice were recovered and monitored on a warming pad until they were fully mobile. […]
An in vivo study evaluating the expression of inflammation markers in the choroid was evaluated using FDM Mice. […]

[5] = system: SSPC; experiment: Effect of TGF-β2 treatment on α-SMA and Col2 gene expression in SSPC (quantitative Real Time-PCR); assay type: cell-based, mouse; settings: 0.1 to 10 ng/ml TGF-β2 for 24 hrs, dose dependent
Method: The SSPCs were isolated and cultured as previously described by CL Tsai et al. (Identification of multipotent stem/progenitor cells in murine sclera. Invest Ophthalmol Vis Sci 52:5481-5487, 2011). In brief, sclera from the mouse was obtained and was carefully dissected away from limbus and optic disc under a dissection microscope. After retina and choroid tissues were removed, the scleral tissue was cut into small pieces and digested with 1.5 mg/ml collagenase type I (Worthington Biochemical, Lakewood, USA) and 2 mg/ml of dispase (Roche, Basel, Switzerland) in PBS for 1 h at 37° C. to release individual cells. […]
Different concentrations of TGF-β2 were added into 12-wells of SSPCs. After 24 hrs, the images of SSPC morphology were recorded. […]
Total RNA from SSPCs or the choroid tissue in each eye was isolated using Trizol (Invitrogen, Carlsbad, Calif.) accordingly to the manufacture's protocol. qRT-PCR analysis was carried out using the iScript one-step RT-PCR kit with SYBR Green (Bio-Rad, Hercules, USA) on an ABI PRISM 7900 HT sequence detection system (Applied Biosystems, Foster City, USA), according to the manufacturer's instructions. […] Ct values of the control gene were subtracted from those of α-SMA and Col2 to provide a semiquantitative analysis, and fold change relative to no treatment was assessed. […]

Row | Molecule | expression of Col2 [1] | expression of α-SMA [1] | myopia progression [2] | expression of Col2 [3] | expression of α-SMA [3] | level of TNF-α in the choroids [4] | α-SMA gene expression ([5]; p<0.0001) | Col2 gene expression ([5]; p=0.011)
1 | CN1[C@@H]2CC[C@H]1C[C@@H](OC(=O)C(CO)c1ccccc1)C2 (stereo partly drawn) [atropine] | suppressed | suppressed |  |  |  |  |  | 
2 | O=C(O)Cc1ccccc1Nc1c(Cl)cccc1Cl [diclofenac] | suppressed | suppressed |  |  |  |  |  | 
3 | O=C(c1ccccc1)c1ccc2n1CCC2C(=O)O (stereo not drawn) [ketorolac] | suppressed | suppressed | no myopia progression | reduced | reduced | suppressed |  | 
4 | B1 |  |  |  |  |  |  | statistically significant increase | statistically significant increase
